Active and inactive are the calls of the source.
Legend:
[1] = target: T1, High affinity choline transporter 1 (Homo sapiens, UniProt Q9GZV3); test: CHT inhibitors, dose response, cell-based, 10-point CRC, membrane potential dye (AID 588401); assay type: functional;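 further: membrane potential dye fluorescence of choline-evoked depolarization via CHT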
T1 sequence (Q9GZV3 whole entry): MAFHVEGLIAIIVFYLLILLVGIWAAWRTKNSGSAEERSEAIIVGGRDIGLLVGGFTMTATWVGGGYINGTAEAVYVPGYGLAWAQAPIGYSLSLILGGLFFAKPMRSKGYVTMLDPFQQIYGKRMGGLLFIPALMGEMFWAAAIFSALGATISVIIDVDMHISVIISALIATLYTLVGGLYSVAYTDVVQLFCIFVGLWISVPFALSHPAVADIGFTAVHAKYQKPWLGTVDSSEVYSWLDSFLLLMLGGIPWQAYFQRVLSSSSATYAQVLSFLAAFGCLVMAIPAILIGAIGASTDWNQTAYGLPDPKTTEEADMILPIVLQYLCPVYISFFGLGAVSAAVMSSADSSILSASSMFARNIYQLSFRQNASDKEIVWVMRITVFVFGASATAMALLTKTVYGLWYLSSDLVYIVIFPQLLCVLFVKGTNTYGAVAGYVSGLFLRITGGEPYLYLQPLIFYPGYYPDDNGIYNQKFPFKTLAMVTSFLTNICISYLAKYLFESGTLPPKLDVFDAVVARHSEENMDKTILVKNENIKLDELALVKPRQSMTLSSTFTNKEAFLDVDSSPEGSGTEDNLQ

[2] = target: T1, High affinity choline transporter 1; test: CHT inhibitors, dose response, cell-based, 5-point CRC, membrane potential dye (AID 504840); assay type: functional
[3] = inhibitors of firefly luciferase expression or activity, dose response, H4 neuroglioma cells, luminescence (AID 1990); assay type: functional, cell-based
[4] = target: Cystic fibrosis transmembrane conductance regulator/Golgi-associated PDZ and coiled-coil motif-containing protein (Homo sapiens, UniProt P13569+Q9HD26); test: CAL PDZ peptide-binding inhibitors, dose response, biochemical, fluorescence polarization, Cerulean-tagged CAL PDZ, cherry-picks (AID 504773)
Cystic fibrosis transmembrane conductance regulator/Golgi-associated PDZ and coiled-coil motif-containing protein, sequence (P13569 whole entry, other chains not shown): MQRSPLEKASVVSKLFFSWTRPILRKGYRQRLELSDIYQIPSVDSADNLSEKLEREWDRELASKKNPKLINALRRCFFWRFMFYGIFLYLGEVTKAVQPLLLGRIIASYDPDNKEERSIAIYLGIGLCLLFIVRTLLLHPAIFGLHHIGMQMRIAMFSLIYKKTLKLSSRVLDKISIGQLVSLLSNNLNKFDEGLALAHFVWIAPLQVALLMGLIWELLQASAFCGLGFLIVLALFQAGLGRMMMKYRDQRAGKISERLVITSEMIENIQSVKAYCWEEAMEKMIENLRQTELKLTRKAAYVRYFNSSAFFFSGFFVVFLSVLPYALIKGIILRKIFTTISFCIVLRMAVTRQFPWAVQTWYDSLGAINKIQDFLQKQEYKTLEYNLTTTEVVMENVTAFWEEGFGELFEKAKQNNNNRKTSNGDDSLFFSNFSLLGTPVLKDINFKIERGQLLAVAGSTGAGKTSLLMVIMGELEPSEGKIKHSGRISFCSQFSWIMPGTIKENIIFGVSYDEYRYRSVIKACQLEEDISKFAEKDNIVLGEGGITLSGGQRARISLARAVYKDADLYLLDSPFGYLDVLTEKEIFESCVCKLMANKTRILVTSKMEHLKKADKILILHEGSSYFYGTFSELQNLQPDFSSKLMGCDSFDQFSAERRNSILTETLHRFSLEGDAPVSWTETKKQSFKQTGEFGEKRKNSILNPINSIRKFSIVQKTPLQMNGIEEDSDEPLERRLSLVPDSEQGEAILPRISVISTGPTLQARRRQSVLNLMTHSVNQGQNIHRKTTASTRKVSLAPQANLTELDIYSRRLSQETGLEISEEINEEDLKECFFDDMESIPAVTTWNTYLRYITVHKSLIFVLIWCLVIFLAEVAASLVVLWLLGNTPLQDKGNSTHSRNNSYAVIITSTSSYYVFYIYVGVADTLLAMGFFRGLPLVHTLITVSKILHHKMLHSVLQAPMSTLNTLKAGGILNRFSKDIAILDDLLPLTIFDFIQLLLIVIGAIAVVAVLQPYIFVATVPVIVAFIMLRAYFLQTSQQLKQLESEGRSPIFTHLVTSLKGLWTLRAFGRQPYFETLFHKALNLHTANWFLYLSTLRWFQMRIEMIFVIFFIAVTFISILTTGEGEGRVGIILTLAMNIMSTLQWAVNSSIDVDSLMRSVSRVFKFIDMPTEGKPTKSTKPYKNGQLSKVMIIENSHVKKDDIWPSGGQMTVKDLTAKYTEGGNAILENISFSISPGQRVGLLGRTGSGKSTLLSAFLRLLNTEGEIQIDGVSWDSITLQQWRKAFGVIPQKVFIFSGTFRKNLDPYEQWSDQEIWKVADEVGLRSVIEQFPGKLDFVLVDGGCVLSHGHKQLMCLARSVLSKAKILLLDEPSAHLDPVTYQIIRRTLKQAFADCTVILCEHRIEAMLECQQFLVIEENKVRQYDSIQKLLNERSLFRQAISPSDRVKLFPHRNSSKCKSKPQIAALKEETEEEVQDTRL

[5] = target: T2, Replicative DNA helicase DnaB (Mycobacterium tuberculosis, UniProt P9WMR3); test: DnaB intein splicing inhibitors, dose response, biochemical, cell-free fluorescence (AID 449749); assay type: functional
T2 sequence (P9WMR3 whole entry): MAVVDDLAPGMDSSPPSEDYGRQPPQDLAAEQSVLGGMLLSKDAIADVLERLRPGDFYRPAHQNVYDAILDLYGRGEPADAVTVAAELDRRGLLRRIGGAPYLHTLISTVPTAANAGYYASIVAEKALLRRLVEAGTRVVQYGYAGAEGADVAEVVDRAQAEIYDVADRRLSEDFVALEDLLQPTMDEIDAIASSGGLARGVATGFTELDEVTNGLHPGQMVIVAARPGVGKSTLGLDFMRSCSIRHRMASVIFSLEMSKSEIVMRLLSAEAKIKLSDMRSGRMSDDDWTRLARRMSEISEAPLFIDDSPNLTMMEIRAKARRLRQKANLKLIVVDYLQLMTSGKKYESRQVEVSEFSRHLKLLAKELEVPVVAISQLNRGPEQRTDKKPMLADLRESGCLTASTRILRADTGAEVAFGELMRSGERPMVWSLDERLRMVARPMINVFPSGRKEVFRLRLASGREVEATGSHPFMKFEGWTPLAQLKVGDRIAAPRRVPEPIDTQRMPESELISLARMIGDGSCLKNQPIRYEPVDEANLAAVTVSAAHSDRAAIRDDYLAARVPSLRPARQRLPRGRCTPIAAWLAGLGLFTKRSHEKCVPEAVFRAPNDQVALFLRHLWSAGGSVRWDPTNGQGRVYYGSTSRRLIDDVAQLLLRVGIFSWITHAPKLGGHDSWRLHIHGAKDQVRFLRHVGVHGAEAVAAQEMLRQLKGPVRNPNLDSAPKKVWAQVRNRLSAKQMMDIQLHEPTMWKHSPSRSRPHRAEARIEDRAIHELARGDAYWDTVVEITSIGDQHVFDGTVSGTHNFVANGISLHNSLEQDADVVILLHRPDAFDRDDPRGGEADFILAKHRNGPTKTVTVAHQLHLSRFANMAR

[6] = target: Tyrosyl-DNA phosphodiesterase 2 (Homo sapiens, UniProt O95551); test: human TDP2 enzyme inhibitors, dose response, biochemical, epi absorbance, IC50 (AID 743297)
[7] = target: T3, RNA-binding protein pos-1 (Caenorhabditis elegans, UniProt G5EF15); test: inhibitors of POS-1/mex-3 RNA binding, dose response, biochemical, fluorescence polarization (AID 1964);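 further: purified POS-1 fused to maltose binding protein made in E. coli; potency of compounds blocking POS-1 binding to fluorescent RNA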
T3 sequence (G5EF15 whole entry): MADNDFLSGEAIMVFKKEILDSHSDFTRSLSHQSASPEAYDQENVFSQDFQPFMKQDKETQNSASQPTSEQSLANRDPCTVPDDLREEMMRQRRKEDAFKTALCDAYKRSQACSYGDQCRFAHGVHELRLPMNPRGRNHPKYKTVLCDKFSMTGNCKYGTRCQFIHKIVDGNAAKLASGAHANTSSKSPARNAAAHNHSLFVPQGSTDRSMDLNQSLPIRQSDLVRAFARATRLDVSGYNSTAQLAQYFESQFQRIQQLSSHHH

[8] = target: Glucose-6-phosphate 1-dehydrogenase (Homo sapiens, UniProt P11413); test: human G6PD enzyme inhibitors, dose response, selectivity assay for P. falciparum G6PD inhibitor project, biochemical, fluorescence (AID 504792); assay type: functional
Glucose-6-phosphate 1-dehydrogenase, sequence (P11413 whole entry): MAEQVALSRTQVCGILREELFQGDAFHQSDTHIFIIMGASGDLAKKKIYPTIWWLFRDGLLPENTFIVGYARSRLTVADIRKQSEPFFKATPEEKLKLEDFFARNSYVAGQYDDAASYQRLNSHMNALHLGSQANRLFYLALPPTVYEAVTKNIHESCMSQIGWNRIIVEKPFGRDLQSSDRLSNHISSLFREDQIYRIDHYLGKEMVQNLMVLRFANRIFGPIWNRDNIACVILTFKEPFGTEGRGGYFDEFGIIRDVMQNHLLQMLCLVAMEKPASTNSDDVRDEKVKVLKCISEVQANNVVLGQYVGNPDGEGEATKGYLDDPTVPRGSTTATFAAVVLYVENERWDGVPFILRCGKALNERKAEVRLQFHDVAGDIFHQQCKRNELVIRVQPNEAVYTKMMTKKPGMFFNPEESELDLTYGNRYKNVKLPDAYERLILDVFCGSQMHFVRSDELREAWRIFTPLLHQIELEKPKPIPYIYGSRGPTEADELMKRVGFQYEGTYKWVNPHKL

[9] = target: T4, Protein RecA (Mycobacterium tuberculosis, UniProt P9WHJ3); test: Fluorescence Cell-Free Homogeneous Dose Retest to Identify Inhibitors of RecA-Intein Splicing Activity. [Related pubchem assays (depositor defined):AID2097, AID2223, AID489010, AID492950]; assay type: functional
T4 sequence (P9WHJ3 whole entry): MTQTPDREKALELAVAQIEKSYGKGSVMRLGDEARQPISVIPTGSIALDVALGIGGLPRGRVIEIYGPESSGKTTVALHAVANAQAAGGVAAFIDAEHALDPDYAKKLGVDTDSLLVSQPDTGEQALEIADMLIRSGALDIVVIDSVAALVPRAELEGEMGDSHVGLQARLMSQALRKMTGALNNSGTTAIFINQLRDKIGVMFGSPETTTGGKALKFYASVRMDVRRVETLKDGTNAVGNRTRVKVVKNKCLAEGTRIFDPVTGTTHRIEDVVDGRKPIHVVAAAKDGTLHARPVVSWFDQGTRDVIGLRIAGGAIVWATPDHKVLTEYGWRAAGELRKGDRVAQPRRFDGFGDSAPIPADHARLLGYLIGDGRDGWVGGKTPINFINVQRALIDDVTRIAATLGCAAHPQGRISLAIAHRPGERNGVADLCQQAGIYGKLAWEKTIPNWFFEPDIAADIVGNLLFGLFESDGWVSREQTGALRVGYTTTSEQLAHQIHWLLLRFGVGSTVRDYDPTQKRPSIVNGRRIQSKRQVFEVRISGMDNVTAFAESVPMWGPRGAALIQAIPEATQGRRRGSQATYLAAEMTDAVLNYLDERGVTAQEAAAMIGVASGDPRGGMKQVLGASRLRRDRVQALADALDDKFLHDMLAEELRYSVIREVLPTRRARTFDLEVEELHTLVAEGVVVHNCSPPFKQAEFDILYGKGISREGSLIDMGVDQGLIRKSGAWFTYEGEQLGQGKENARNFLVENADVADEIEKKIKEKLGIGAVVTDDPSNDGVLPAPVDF

[10] = CAL PDZ domain peptide-binding inhibitors, dose response, biochemical, fluorescence polarization, untagged CAL PDZ, dry powder (AID 602255); assay type: functional
[11] = target: T5, Zinc finger protein mex-5 (Caenorhabditis elegans, UniProt Q9XUB2); test: MEX-5/TCR-2 RNA interaction inhibitors, dose response, biochemical, C. elegans, fluorescence polarization (AID 1960)
T5 sequence (Q9XUB2 whole entry): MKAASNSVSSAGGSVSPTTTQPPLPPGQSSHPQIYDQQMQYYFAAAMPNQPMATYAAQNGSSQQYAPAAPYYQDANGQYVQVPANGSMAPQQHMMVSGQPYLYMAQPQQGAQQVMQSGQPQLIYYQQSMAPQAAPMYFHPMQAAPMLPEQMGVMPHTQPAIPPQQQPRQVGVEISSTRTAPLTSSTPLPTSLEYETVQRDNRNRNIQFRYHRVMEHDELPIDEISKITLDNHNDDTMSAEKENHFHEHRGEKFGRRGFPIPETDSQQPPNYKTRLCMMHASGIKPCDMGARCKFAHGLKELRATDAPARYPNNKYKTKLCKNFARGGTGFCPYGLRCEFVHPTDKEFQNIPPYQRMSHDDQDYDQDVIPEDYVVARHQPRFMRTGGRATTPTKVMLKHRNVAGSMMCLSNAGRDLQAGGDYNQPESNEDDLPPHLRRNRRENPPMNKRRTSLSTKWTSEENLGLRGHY

[12] = Luminescence Cell-Based Dose Response HTS to Identify Inhibitors of 5'UTR Stem-Loop Driven Prion Protein mRNA Translation in H4 Neuroglioblastoma Cells. [Related pubchem assays: 1827 (Project Summary), 1813 (Primary HTS)]; assay type: functional
[13] = target: Genome polyprotein (dengue virus type 2, UniProt P29990); test: Dengue-2 NS5 methyltransferase inhibitors, primary screen, biochemical, confirmation dose response (AID 588689); assay type: functional
Genome polyprotein, sequence (P29990 2492-3391 limits assumed): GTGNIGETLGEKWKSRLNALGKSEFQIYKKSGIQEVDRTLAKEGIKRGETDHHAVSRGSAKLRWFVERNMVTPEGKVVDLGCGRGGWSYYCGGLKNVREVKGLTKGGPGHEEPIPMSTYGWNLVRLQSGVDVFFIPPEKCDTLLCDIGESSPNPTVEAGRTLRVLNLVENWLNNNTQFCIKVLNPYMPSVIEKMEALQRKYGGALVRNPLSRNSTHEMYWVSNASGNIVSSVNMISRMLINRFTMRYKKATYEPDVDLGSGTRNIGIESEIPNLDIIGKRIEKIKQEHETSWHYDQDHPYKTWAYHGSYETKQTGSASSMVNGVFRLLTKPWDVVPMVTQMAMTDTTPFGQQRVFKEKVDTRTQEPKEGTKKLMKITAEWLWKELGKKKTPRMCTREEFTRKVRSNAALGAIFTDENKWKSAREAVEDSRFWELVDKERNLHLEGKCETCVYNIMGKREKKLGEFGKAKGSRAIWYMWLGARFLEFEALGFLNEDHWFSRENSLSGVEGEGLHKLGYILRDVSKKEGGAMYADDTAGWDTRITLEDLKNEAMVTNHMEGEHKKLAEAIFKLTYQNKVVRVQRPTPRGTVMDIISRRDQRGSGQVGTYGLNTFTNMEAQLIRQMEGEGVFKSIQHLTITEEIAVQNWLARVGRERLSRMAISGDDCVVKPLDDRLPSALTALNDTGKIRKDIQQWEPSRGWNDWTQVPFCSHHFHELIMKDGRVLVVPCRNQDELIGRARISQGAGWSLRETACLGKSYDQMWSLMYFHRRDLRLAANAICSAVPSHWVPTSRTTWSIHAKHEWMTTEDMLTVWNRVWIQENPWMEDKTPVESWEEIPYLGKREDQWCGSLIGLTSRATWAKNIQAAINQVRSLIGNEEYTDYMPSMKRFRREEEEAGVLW

[14] = system: Vero; test: Vero cell cytotoxicity, cytotoxicity control for flavivirus capping enzyme inhibitors (AID 588742); assay type: functional; details: Chlorocebus sabaeus
[15] = inhibitors of SNCA 5'UTR-driven reporter translation, confirmation, H4 neuroglioma cells, luminescence (AID 1988); assay type: functional, cell-based
[16] = target: T6, Small ubiquitin-related modifier 1 (Homo sapiens, UniProt P63165); test: inhibitors of SUMO1 partner interactions, dose response, biochemical, FRET (AID 624383); assay type: functional; details: read-out: IC50_Mean
T6 sequence (P63165 whole entry): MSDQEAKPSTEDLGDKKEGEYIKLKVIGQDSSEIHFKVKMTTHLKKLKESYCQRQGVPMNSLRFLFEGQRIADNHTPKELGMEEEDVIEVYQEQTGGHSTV

[17] = target: Albumin (Bos taurus, UniProt P02769); test: Counterscreen for inhibitors of T-cell receptor (TCR)-CD3 interaction: Fluorescence-based biochemical high throughput dose response assay to identify inhibitors of T-cell receptor (TCR)-CD3 interaction using a TAMRA-labeled BSA probe.; assay type: functional
[18] = target: DNA (cytosine-5)-methyltransferase 1 (Homo sapiens, UniProt P26358); test: DNMT1 methyltransferase inhibitors, confirmation, biochemical, fluorescent molecular beacon (AID 602386); assay type: functional
DNA (cytosine-5)-methyltransferase 1, sequence (P26358 whole entry): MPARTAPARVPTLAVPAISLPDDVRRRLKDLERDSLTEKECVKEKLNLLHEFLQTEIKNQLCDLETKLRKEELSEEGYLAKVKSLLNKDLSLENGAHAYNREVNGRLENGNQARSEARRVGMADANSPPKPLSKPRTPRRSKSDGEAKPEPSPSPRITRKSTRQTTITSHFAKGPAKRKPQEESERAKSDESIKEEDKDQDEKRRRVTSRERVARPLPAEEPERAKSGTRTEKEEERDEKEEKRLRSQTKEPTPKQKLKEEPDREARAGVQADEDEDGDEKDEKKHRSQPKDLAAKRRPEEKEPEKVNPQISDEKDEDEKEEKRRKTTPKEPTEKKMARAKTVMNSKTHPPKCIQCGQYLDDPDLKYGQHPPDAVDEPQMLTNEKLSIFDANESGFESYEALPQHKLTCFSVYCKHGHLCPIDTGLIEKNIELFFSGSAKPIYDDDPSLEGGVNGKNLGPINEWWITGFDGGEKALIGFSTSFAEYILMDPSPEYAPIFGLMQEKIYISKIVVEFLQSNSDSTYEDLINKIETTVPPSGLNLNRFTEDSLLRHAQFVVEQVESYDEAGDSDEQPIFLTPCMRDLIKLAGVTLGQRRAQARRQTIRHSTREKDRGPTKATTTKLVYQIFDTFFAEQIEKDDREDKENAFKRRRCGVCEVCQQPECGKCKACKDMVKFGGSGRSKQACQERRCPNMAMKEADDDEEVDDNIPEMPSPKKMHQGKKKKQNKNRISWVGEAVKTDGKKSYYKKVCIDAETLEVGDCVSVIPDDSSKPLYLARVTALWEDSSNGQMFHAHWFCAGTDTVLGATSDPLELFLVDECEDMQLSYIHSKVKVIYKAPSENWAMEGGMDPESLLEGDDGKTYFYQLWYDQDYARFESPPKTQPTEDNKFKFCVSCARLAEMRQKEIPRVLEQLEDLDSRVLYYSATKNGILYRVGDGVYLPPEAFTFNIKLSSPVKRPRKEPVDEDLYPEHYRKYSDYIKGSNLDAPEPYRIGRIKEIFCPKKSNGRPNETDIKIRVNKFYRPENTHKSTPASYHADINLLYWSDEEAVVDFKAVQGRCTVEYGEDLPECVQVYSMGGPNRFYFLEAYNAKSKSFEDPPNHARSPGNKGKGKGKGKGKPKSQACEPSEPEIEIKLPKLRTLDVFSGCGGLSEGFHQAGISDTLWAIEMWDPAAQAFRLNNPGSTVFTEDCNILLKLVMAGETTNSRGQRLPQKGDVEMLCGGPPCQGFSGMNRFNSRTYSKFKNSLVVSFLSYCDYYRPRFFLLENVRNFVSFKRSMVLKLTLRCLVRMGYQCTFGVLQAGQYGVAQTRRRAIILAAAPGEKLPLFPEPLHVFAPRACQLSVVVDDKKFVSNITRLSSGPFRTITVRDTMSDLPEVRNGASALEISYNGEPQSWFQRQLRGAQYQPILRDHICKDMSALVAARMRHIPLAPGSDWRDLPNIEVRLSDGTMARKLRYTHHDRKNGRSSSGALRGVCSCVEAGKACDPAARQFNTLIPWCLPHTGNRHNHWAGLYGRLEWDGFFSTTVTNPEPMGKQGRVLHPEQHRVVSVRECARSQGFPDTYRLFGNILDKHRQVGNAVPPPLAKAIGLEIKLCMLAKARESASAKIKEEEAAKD

[19] = target: T6, Small ubiquitin-related modifier 1; test: inhibitors of SUMO1 peptide binding, dose response, biochemical, fluorescence polarization, uHTS hits (AID 624382); assay type: functional; details: read-out: IC50_Mean
[20] = target: T7, Apoptotic protease-activating factor 1 (Homo sapiens, UniProt O14727); test: SAR analysis of small molecule Activators of Apaf-1 in a Fluorescent assay.; assay type: functional; details: read-out: EC50_Mean;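 further: caspase-3 cleavage of fluorogenic Rh110 DEVD substrate downstream of apoptosome activation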
T7 sequence (O14727 whole entry): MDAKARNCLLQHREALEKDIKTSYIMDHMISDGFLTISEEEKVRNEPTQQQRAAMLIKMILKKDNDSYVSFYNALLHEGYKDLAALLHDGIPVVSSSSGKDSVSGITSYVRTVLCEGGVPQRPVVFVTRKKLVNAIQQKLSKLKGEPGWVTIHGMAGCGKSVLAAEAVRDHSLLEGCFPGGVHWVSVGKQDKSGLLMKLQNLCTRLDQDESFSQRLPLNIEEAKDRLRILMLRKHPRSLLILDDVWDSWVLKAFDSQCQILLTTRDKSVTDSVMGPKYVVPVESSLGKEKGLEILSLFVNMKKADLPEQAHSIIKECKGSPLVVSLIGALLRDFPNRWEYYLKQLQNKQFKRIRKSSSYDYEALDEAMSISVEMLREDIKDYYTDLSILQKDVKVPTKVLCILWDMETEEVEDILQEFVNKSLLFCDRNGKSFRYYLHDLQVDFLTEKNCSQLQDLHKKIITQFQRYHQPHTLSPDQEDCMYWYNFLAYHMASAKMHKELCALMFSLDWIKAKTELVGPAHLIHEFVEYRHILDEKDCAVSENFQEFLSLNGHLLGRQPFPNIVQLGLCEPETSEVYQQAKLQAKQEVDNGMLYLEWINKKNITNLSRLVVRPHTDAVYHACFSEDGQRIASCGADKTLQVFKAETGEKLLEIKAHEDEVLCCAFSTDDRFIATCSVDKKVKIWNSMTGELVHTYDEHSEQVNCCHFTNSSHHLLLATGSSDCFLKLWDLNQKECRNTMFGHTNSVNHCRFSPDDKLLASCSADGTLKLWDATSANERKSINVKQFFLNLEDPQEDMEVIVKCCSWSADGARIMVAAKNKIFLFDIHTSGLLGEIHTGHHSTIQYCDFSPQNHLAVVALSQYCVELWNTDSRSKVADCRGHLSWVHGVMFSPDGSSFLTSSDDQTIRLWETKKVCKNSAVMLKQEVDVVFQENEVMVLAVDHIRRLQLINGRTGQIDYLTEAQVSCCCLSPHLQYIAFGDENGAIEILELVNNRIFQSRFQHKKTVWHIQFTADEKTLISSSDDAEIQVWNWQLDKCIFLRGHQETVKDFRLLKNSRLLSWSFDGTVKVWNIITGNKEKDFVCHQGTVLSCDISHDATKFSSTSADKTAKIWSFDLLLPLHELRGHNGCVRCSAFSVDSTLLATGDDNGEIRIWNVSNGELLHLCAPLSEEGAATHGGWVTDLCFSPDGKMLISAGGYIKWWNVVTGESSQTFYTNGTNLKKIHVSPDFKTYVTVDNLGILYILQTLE

[21] = system: H9c2; test: cells; assay type: functional, cell-based; details: Rattus norvegicus, H9c2, Myocardium;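 further: confirmatory concentration-response retest of ultra-high-throughput screening hits for modulation of myocardial damage; cell death induced by hydrogen peroxide oxidative stress; compound pretreatment for 60 min then peroxide exposure for 2 h; potency is for protecting the cells against peroxide damage rather than for killing them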
[22] = target: Melanocortin receptor 4 (Homo sapiens, UniProt P32245); assay type: functional, cell-based;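 further: Cell-based assay with luminescence read-out, confirmatory dose-response testing for agonist activity of biased ligands at MC4R; human U2OS cells with tagged receptor and beta-arrestin; potency of agonists that increase receptor coupling to beta-arrestin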
Melanocortin receptor 4, sequence (P32245 whole entry): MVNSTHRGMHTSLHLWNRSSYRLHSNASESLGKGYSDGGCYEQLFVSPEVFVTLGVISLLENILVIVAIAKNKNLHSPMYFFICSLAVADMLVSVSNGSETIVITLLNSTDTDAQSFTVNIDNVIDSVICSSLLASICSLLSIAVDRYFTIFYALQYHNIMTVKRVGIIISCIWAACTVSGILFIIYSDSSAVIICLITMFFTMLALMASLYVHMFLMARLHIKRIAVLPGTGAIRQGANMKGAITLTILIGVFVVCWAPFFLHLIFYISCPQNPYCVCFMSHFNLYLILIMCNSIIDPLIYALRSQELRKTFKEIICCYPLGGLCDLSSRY

## COc1ccc(-c2nc(C=O)cs2)cc1
[1]
  IC50: 3.57 µM (active)
[2]
  IC50: 2.88 µM (active)

## O=C(Cc1ccc(-n2c(=O)c3ccccc3n(Cc3ccccc3F)c2=O)cc1)NCC1CCCO1 (centres undefined)
[1]
  IC50: 3.98 µM (active)
[2]
  IC50: 7.14 µM (active)

## CCOc1ccc(S(=O)(=O)Nc2cc(SCC(=O)O)c(O)c3ccccc23)cc1
[3]
  EC50: > 120 µM (not active)
[4]
  AC50: 36.2 µM (active)
[5]
  AC50: 20.7 µM (active)
[6]
  IC50: 68.8 µM (inactive)
[7]
  EC50: 78.8 µM (active)
[8]
  IC50: 28.4 µM (inactive)
[9]
  EC50: 4.23 µM (active)
[10]
  AC50: 54.4 µM (active)
[11]
  EC50: 11.9 µM (inconclusive)
[12]
  EC50: > 120 µM (not active)
[13]
  IC50: 7.49 µM (active)
[14]
  CC50: 26.6 µM (active)
[15]
  EC50: > 120 µM (not active)

## c1coc(-c2ccc3nncn3c2)c1
[16]
  IC50: 7.19 µM (active)
[17]
  IC50: > 94.2 µM (inactive)
[18]
  IC50: 4.58 µM (active)
[19]
  IC50: > 66.6 µM (inactive)

## CCOc1ccccc1NC(=O)CCS(=O)(=O)c1ccc2c(c1)OCCO2
[20]
  EC50: > 100 µM (inactive)

## COc1cc(-c2cc(NC=O)c3ncc(-c4ccc(C(C)=O)cc4)n3c2)cc(OC)c1OC
[21]
  IC50: > 79 µM (inactive)
[22]
  EC50: > 89.2 µM (inactive)

Source: ChEMBL document CHEMBL1201862, “PubChem BioAssay data set” (2004)
